From patent publication US10206394B2, “Herbicidal compounds” (Syngenta Participations AG, priority 2014, dated 2019)
Where two headings read alike, the source gives them in different places.

What was measured:
Experiment in all cases: Glasshouse assay for herbicidal activity (pre- and post-emergence), percentage phytotoxicity
Type in all cases: in vivo
Avena fatua (AVEFA) = settings: Avena fatua, rate 250 g/ha
In short: (§1)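 Visual phytotoxicity score, 0% = undamaged to 100% = total kill, read 20 days after treatment for PRE and 15 days for POST. Pots of standard soil; treatment at day 1 (PRE) or roughly day 12 (POST). Glasshouse: 16 h photoperiod, 65% RH, 24/18 or 20/16 °C by climate type.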

[1] = test system: Echinochloa crus-galli (ECHCG); settings: Echinochloa crus-galli, rate 250 g/ha
In short: as §1

Lolium perenne (LOLPE) = settings: Lolium perenne, rate 250 g/ha
In short: as §1

[2] = test system: Alopecurus myosuroides (ALOMY); settings: Alopecurus myosuroides, rate 250 g/ha
In short: as §1

[3] = post-emergence, 360 h, POST-emergence, visual score 15 DAA (100%=total damage, 0%=no damage), read-out: Post-emergence herbicidal activity (percentage phytotoxicity) AVEFA POST
[4] = pre-emergence, 480 h, PRE-emergence, visual score 20 DAA (100%=total damage, 0%=no damage), read-out: Pre-emergence herbicidal activity (percentage phytotoxicity) AVEFA PRE
[5] = post-emergence, 360 h, POST-emergence, visual score 15 DAA (100%=total damage, 0%=no damage), read-out: Post-emergence herbicidal activity (percentage phytotoxicity) ECHCG POST
[6] = pre-emergence, 480 h, PRE-emergence, visual score 20 DAA (100%=total damage, 0%=no damage), read-out: Pre-emergence herbicidal activity (percentage phytotoxicity) ECHCG PRE
[7] = post-emergence, 360 h, POST-emergence, visual score 15 DAA (100%=total damage, 0%=no damage), read-out: Post-emergence herbicidal activity (percentage phytotoxicity) LOLPE POST
[8] = pre-emergence, 480 h, PRE-emergence, visual score 20 DAA (100%=total damage, 0%=no damage), read-out: Pre-emergence herbicidal activity (percentage phytotoxicity) LOLPE PRE
[9] = post-emergence, 360 h, POST-emergence, visual score 15 DAA (100%=total damage, 0%=no damage), read-out: Post-emergence herbicidal activity (percentage phytotoxicity) ALOMY POST
[10] = pre-emergence, 480 h, PRE-emergence, visual score 20 DAA (100%=total damage, 0%=no damage), read-out: Pre-emergence herbicidal activity (percentage phytotoxicity) ALOMY PRE

Compound	pest or weed control at 250 g/ha (Avena fatua (AVEFA); [3])	pest or weed control at 250 g/ha (Avena fatua (AVEFA); [4])	pest or weed control at 250 g/ha [1, 5]	pest or weed control at 250 g/ha [1, 6]	pest or weed control at 250 g/ha (Lolium perenne (LOLPE); [7])	pest or weed control at 250 g/ha (Lolium perenne (LOLPE); [8])	pest or weed control at 250 g/ha [2, 9]	pest or weed control at 250 g/ha [2, 10]
COCCN(CCOC)C(=O)CC1CC(=O)C(c2c(C)cc(-c3ncc(F)cc3F)cc2C)C1=O (centres unmarked) [Compound B266]	100%	40%	100%	100%	80%	90%	100%	100%
Cc1cc(-c2ncc(F)cc2F)cc(C)c1C1C(=O)CC(CC(=O)N(C)C(C)(C)C)C1=O (centres unmarked) [Compound B267]	100%	80%	100%	100%	100%	100%	100%	100%
Cc1cc(-c2ncc(Br)cn2)cc(C)c1C1C(=O)CC(CC(=O)NC(C)(C)C)C1=O (centres unmarked) [Compound B268]	100%	90%	100%	100%	100%	100%	90%	100%
CNC(=O)CC1CC(=O)C(c2c(C)cc(-c3ncc(F)cc3F)cc2C)C1=O (centres unmarked) [Compound B269]	100%	100%	100%	100%	100%	100%	100%	100%
Cc1cc(-c2ncc(C#N)cn2)cc(C)c1C1C(=O)CC(CC(=O)NC(C)(C)C)C1=O (centres unmarked) [Compound B270]	100%	90%	100%	100%	90%	100%	100%	100%
COc1ccc(CNC(=O)CC2CC(=O)C(c3c(C)cc(-c4ncc(F)cn4)cc3C)C2=O)cc1 (centres unmarked) [Compound B271]	100%	80%	100%	100%	90%	80%	100%	80%
Cc1cc(-c2ncc(F)cn2)cc(C)c1C1C(=O)CC(CC(=O)NCc2ccc(C#N)cc2)C1=O (centres unmarked) [Compound B272]	100%	80%	100%	90%	80%	50%	100%	80%
Cc1cc(-c2ncc(F)cn2)cc(C)c1C1C(=O)CC(CC(=O)N(C)Cc2cccc(F)c2)C1=O (centres unmarked) [Compound B273]	100%	90%	100%	100%	100%	100%	100%	90%
C/C=C/c1cc(C)c(C2C(=O)CC(CC(=O)N(C)C(C)(C)C)C2=O)c(CC)c1 (centres unmarked) [Compound B274]	100%	50%	100%	70%	90%	70%	100%	70%
Cc1cc(-c2ncc(F)cn2)cc(C)c1C1C(=O)CC(CC(=O)NC(C)C)C1=O (centres unmarked) [Compound B275]	100%	100%	100%	100%	100%	100%	100%	100%
